Data on one molecule can be found in patent publication US20260015356A1, “ADENOSINE RECEPTOR ANTAGONISTS AND USES THEREOF” (Teon Therapeutics, Inc., priority 2022, published 2026).

The assay has as its system MC38 tumor model. In words: MC38 tumor model (fibrosis). The class given is in vivo. The following applies: no dose or method printed.

For `CCCn1c(=O)c2c(nc(-c3cnn(Cc4cccc(C(F)(F)F)c4)c3)n2C(C)=O)n(CC)c1=O` [Compound 1, 7-acetyl-3-ethyl-1-propyl-8-(1-(3-(trifluoromethyl)benzyl)-1H-pyrazol-4-yl)-3,7-dihydro-1H-purine-2,6-dione], the “fibrosis in a MC38 tumor model” value is “reduces fibrosis”.
